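96-well plates; 48 h exposure; 5 concentrations. Endpoints by linear interpolation between flanking doses. Not reached: highest tested concentration assigned. TGI marks complete inhibition of growth.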

The record followed here is PubChem BioAssay (NCI).

Among the test systems are DMS 114 small cell lung; KM20L2 colon; LXFL 529 NSCLC; M19-MEL melanoma; SNB-78 CNS; DMS 273 small cell lung; HOP-18 NSCLC; XF 498 CNS; RXF-631 renal.
Common to all, as to test: DTP human tumour cell line panel, 48 h

As for `CSc1nc2c(c(O)c(C)c(=O)n2C2OCC(OC(C)=O)C(OC(C)=O)C2OC(C)=O)c(=O)n1C` (stereo unspecified), the TGI in the assay on DMS 114 small cell lung, in the assay with KM20L2 colon, in the assay on LXFL 529 NSCLC, in the assay on M19-MEL melanoma and in the assay on SNB-78 CNS was over 100 µM in each case.
For `CCC1(N=[N+]=[N-])C(=O)c2ccccc2N(c2ccccc2)C1=O` (stereo unspecified), the TGI with DMS 114 small cell lung, in the assay with DMS 273 small cell lung, with HOP-18 NSCLC, in the assay on KM20L2 colon, in the assay with LXFL 529 NSCLC and in the assay on M19-MEL melanoma was over 100 µM in each case. The TGI in the assay on SNB-78 CNS and in the assay on XF 498 CNS was over 100 µM each time.
`Brc1ccc2c(c1)C1C(CO2)C(c2ccccc2)=NN1c1ccccc1` (stereo unspecified): the TGI in the assay with DMS 114 small cell lung, in the assay with DMS 273 small cell lung, in the assay with HOP-18 NSCLC, in the assay on KM20L2 colon, in the assay with LXFL 529 NSCLC and in the assay with M19-MEL melanoma was over 100 µM in each case. Further, the TGI with SNB-78 CNS and in the assay with XF 498 CNS was over 100 µM throughout.
For `Cc1nc2c(n1CCN(C)C)C(=O)c1ccccc1C2=O`, the TGI (commonly the concentration giving total growth inhibition) with DMS 273 small cell lung is 28.8 µM; with KM20L2 colon, 25.8 µM; in the assay on LXFL 529 NSCLC, 37.3 µM; in the assay with M19-MEL melanoma, 4.3 µM; in the assay on SNB-78 CNS, 78.9 µM; in the assay with XF 498 CNS it was 33.1 µM.
Turning to `CN(C)CC1(Cc2ccccc2)CCC(Cc2ccccc2)C1=O` (stereo unspecified), the TGI in the assay on DMS 114 small cell lung stood at 36.4 µM; in the assay on DMS 273 small cell lung it was 29 µM; in the assay on HOP-18 NSCLC it was 21.3 µM; in the assay with KM20L2 colon, 32.4 µM; in the assay with LXFL 529 NSCLC, 7.32 µM; with M19-MEL melanoma, 32 µM. For the same compound, the values for the TGI with SNB-78 CNS and in the assay on XF 498 CNS were 43.4 µM and 36.3 µM, respectively.
For the compound `Cn1nc2ccc3nccc(N(CCO)CCO)c3c2n1`, the TGI in the assay with DMS 273 small cell lung, with HOP-18 NSCLC, in the assay on KM20L2 colon, in the assay with LXFL 529 NSCLC, in the assay on M19-MEL melanoma and in the assay on SNB-78 CNS was over 100 µM throughout. In the assay on XF 498 CNS, this compound displayed a concentration for total growth inhibition (TGI) of over 100 µM.
As for `CCCCCCCCCCCCn1[nH]c(C)c(C(=S)SCCCCCCCC)c1=O`, the TGI was over 79.4 µM with DMS 114 small cell lung; over 100 µM in the assay on DMS 273 small cell lung; over 100 µM in the assay on HOP-18 NSCLC; over 100 µM in the assay with KM20L2 colon; over 100 µM in the assay with LXFL 529 NSCLC; 67.7 µM with M19-MEL melanoma. The TGI with RXF-631 renal, in the assay with SNB-78 CNS and in the assay on XF 498 CNS was over 100 µM each time.
For the compound `COC(=O)NC(=O)c1cn(CCCOC(=O)CCCCCCCCC(=O)OCCCn2cc(C(=O)NC(=O)OC)c(=O)[nH]c2=O)c(=O)[nH]c1=O`, the TGI in the assay on DMS 114 small cell lung, in the assay with DMS 273 small cell lung, with HOP-18 NSCLC, in the assay on KM20L2 colon, in the assay with LXFL 529 NSCLC and with M19-MEL melanoma was over 100 µM throughout. Further, the TGI in the assay with RXF-631 renal was over 100 µM; in the assay with SNB-78 CNS, over 100 µM; in the assay on XF 498 CNS, 58.8 µM.
For `CC1C=C[C@H](Sc2ccccc2)CC[C@@]1(C)O` (stereo partly specified), the concentration for total growth inhibition (TGI) with DMS 114 small cell lung, in the assay with KM20L2 colon, in the assay on LXFL 529 NSCLC, in the assay with M19-MEL melanoma and with SNB-78 CNS was over 100 µM in each case.
For the compound `COC(=O)C1N=CSCC1(C)O` (stereo unspecified), the TGI in the assay on DMS 114 small cell lung, in the assay with HOP-18 NSCLC, in the assay on KM20L2 colon, in the assay with M19-MEL melanoma, in the assay with SNB-78 CNS and in the assay on XF 498 CNS was over 100 µM each time.
Turning to `CC(C)(Oc1ccc2c(=O)cc(-c3ccccc3)oc2c1)C(=O)Nc1c(Cl)cccc1Cl`, the total growth inhibition concentration (TGI) with DMS 114 small cell lung, with DMS 273 small cell lung, with HOP-18 NSCLC, in the assay on KM20L2 colon, in the assay with LXFL 529 NSCLC and in the assay with M19-MEL melanoma was over 100 µM throughout. Besides, the TGI with SNB-78 CNS was over 100 µM; in the assay with XF 498 CNS, 72.2 µM.
Regarding `COc1ccc(N2C(=O)[C@@H]3[C@H](C2=O)c2[nH]c4ccccc4c2C2CCC(C(C)(C)C)C[C@@H]23)cc1` (stereo partly specified), the TGI was over 77.9 µM with DMS 273 small cell lung; over 100 µM in the assay on KM20L2 colon; over 100 µM with LXFL 529 NSCLC; over 100 µM with M19-MEL melanoma; 59.5 µM in the assay with SNB-78 CNS; over 100 µM with XF 498 CNS.
Turning to `CC(=O)NC(CCCNC(=O)NCCCl)C(=O)NCc1ccccc1` (stereo unspecified), the TGI in the assay with DMS 114 small cell lung, in the assay with DMS 273 small cell lung, in the assay with HOP-18 NSCLC, in the assay on KM20L2 colon, in the assay on LXFL 529 NSCLC and in the assay with M19-MEL melanoma was over 100 µM each time. Besides, the TGI with RXF-631 renal was over 100 µM.
For `CCCCNC(=O)CCN(C(=O)O)S(=O)(=O)c1ccc(NC(=O)c2ccccc2)cc1`, the TGI was over 100 µM with DMS 114 small cell lung; 86.5 µM in the assay on DMS 273 small cell lung; over 100 µM in the assay with HOP-18 NSCLC; over 100 µM in the assay with KM20L2 colon; over 100 µM with LXFL 529 NSCLC; over 100 µM in the assay on M19-MEL melanoma. Also, the concentration for total growth inhibition (TGI) in the assay on SNB-78 CNS and with XF 498 CNS was over 100 µM in each case.
In the case of `C/C(CC(=O)NC1=CC=C(NC(=O)C/C(C)=N\Nc2ccccc2)CC1)=N/Nc1ccccc1`, the TGI in the assay with DMS 114 small cell lung, in the assay on DMS 273 small cell lung, in the assay on HOP-18 NSCLC, in the assay with KM20L2 colon, with LXFL 529 NSCLC and in the assay with M19-MEL melanoma was over 100 µM in each case. The TGI in the assay on RXF-631 renal, with SNB-78 CNS and with XF 498 CNS was over 100 µM in each case.
In the case of `COc1ccc(NC(=O)CC(=O)N/N=C/c2ccc(N(CCC#N)S(=O)(=O)c3ccccc3)cc2)cc1`, the TGI in the assay on DMS 114 small cell lung, in the assay with HOP-18 NSCLC, in the assay on KM20L2 colon, with LXFL 529 NSCLC, with M19-MEL melanoma and in the assay with RXF-631 renal was over 100 µM each time. Also, the concentration for total growth inhibition (TGI) in the assay on SNB-78 CNS and with XF 498 CNS was over 100 µM throughout.
Turning to `O=C(O)Cn1c(=O)[nH]c(=O)c2[nH]cnc21`, the TGI in the assay with DMS 114 small cell lung, in the assay with DMS 273 small cell lung, with HOP-18 NSCLC, in the assay on KM20L2 colon, in the assay with LXFL 529 NSCLC and in the assay with M19-MEL melanoma was over 100 µM each time. Besides, the TGI in the assay with RXF-631 renal and in the assay on SNB-78 CNS was over 100 µM each time.
On to `COc1cc(C)c(C)c(OC(=O)c2c(C)c(C)c(OC)c(C)c2OC)c1C`, for which the TGI with DMS 114 small cell lung was 15.5 µM; with DMS 273 small cell lung, 20.6 µM; with HOP-18 NSCLC, over 100 µM; in the assay on KM20L2 colon, 19.6 µM; with LXFL 529 NSCLC it was over 100 µM; in the assay with M19-MEL melanoma it was 46.6 µM. Further, the TGI is 69.1 µM in the assay with RXF-631 renal, over 100 µM in the assay with SNB-78 CNS and 40 µM with XF 498 CNS.
In the case of `O=S(=O)(O)c1cc(N=Nc2cc(S(=O)(=O)O)c3cccnc3c2O)ccc1/C=C/c1ccc(N=Nc2cc(S(=O)(=O)O)c3cccnc3c2O)cc1S(=O)(=O)O`, the TGI in the assay with DMS 114 small cell lung, in the assay on DMS 273 small cell lung, in the assay with HOP-18 NSCLC, with KM20L2 colon, in the assay with LXFL 529 NSCLC and in the assay with M19-MEL melanoma was over 100 µM each time. Also, the TGI in the assay with RXF-631 renal, in the assay on SNB-78 CNS and with XF 498 CNS was over 100 µM in each case.
As to `COC(=O)CCc1cccnc1/C=N/O`, the TGI in the assay with DMS 114 small cell lung, in the assay on DMS 273 small cell lung, in the assay on HOP-18 NSCLC, with KM20L2 colon, in the assay with LXFL 529 NSCLC and with M19-MEL melanoma was over 100 µM throughout. Moreover, the TGI in the assay with RXF-631 renal and in the assay with SNB-78 CNS was over 100 µM in each case.
